The results in this text go back to patent publication US20260216347A1, “Substituted Imidazo-Based Compounds as Ligand Directed Degraders of IRAK3” (Celgene Corporation, priority 2022, published 2026).

The target of the assay is T1, IRAK3-ePL (Homo sapiens, UniProt Q9Y616).
T1 construct: expressed in transfected cells; host or cells: 293T CRBN OE/GSPT1 G575N KI cells, lentiviral transduction, puromycin selected
Kind of assay: IRAK3-ePL overexpressing degradation assay (InCELL Hunter luminescence, dose response). Type of assay: cell-based. The note with it: for IRAK3 ePL degradation Ymin: lowest percentage of target protein remaining following compound treatment; for DC50: read-out: IRAK3 ePL degradation EC50. In outline:
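Lenti-X 293T CRBN/GSPT1 G575N cells stably expressing IRAK3-ePL (5,000/well) treated overnight at 37° C with 10-point 3-fold dilutions from 10 μM, 0.2% DMSO. InCELL Hunter luminescence, background subtracted using Ataluren wells and normalized to DMSO; EC50 from four-parameter logistic fit.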

For `Cc1cc(-c2cnc(Nc3cnn([C@H]4CC[C@H](CCN5CCN(c6ccc([C@@]7(C)CCC(=O)NC7=O)cc6)CC5)CC4)c3)c3nccn23)c(F)cc1F` [Compound 81, (R)-3-(4-(4-(2-((trans)-4-(4-((5-(2,4-difluoro-5-methylphenyl)imidazo[1,2-a]pyrazin-8-yl)amino)-1H-pyrazol-1-yl)cyclohexyl)ethyl)piperazin-1-yl)phenyl)-3-methylpiperidine-2,6-dione], the “IRAK3 ePL degradation Ymin” value was found to be 27% and the DC50 came to 3.3 nM.

With `Cc1cc(-c2cnc(Nc3cnn(C4CCN(CCN5CCN(c6ccc([C@]7(C)CCC(=O)NC7=O)cc6)CC5)CC4)c3)c3nccn23)c(F)cc1F` [Compound 76, (S)-3-(4-(4-(2-(4-(4-((5-(2,4-difluoro-5-methylphenyl)imdazo [1,2-a]pyrazin-8-yl)amino)-1H-pyrazol-1-yl)piperidin-1-yl)ethyl)piperazin-1-yl)phenyl)-3-methylpiperidine-2,6-dione], the “IRAK3 ePL degradation Ymin” value stood at 78%.

For `Cc1cccc(-c2cnc(Nc3cnn(C4CCN(CCCN5CCN(c6ccc(C7CCC(=O)NC7=O)cc6)CC5)CC4)c3)c3nccn23)c1` (stereo not shown) [Compound 4, 3-(4-(4-(3-(4-(4-((5-(m-tolyl)imidazo[1,2-a]pyrazin-8-yl)amino)-1H-pyrazol-1-yl)piperidin-1-yl)propyl)piperazin-1-yl)phenyl) piperidine-2,6-dione], the “IRAK3 ePL degradation Ymin” value is 13% and the DC50 was found to be 4 nM.

`Cc1cc(-c2ccc(Nc3cnn(C4CCN(CCN5CCN(c6ccc(C7CCC(=O)NC7=O)cc6)CC5)CC4)c3)c3nccn23)c(F)cc1F` (stereo not shown) [Compound 12, 3-(4-(4-(2-(4-(4-((5-(2,4-difluoro-5-methylphenyl)imdazo [1,2-a]pyridin-8-yl)amino)-1H-pyrazol-1-yl)piperidin-1-yl)ethyl)piperazin-1-yl)phenyl) piperidine-2,6-dione]: the “IRAK3 ePL degradation Ymin” value amounted to 14% and the DC50 stood at 3 nM.

For the compound `Cc1cc(-c2cnc(Nc3cnn([C@H]4CCN(CCN5CCN(c6ccc(C7CCC(=O)NC7=O)cc6)CC5)C[C@@H]4F)c3)c3nccn23)c(F)cc1F` (stereo partly drawn) [Compound 72, 3-(4-(4-(2-((3S,4S)-4-(4-((5-(2,4-difluoro-5-methylphenyl)imdazo [1,2-a]pyrazin-8-yl)amino)-1H-pyrazol-1-yl)-3-fluoropiperidin-1-yl)ethyl)piperazin-1-yl)phenyl) piperidine-2,6-dione], the “IRAK3 ePL degradation Ymin” value worked out at 24% and the DC50 is 0.51 nM.

For the compound `Cc1cc(-c2cnc(Nc3cnn(C4CCN(CCN5CCN(c6cccc(C7CCC(=O)NC7=O)c6)CC5)CC4)c3)c3nccn23)c(F)cc1F` (stereo not shown) [Compound 31, 3-(3-(4-(2-(4-(4-((5-(2,4-difluoro-5-methylphenyl)imdazo [1,2-a]pyrazin-8-yl)amino)-1H-pyrazol-1-yl)piperidin-1-yl)ethyl)piperazin-1-yl)phenyl) piperidine-2,6-dione], the “IRAK3 ePL degradation Ymin” value came out at 44% and the DC50 was 38 nM.

`Cc1cc(-c2cnc(Nc3cnn([C@H]4CC[C@@H](CCN5CCN(c6ccc(C7CCC(=O)NC7=O)cc6)CC5)CC4)c3)c3nccn23)c(F)cc1F` (stereo partly drawn) [Compound 14, 3-(4-(4-(2-((cis)-4-(4-((5-(2,4-difluoro-5-methylphenyl)imidazo[1,2-a]pyrazin-8-yl)amino)-1H-pyrazol-1-yl)cyclohexyl)ethyl)piperazin-1-yl)phenyl) piperidine-2,6-dione]: the “IRAK3 ePL degradation Ymin” value amounted to 15% and the DC50 worked out at 1.1 nM.
